According to ChEMBL document CHEMBL1641536, “The identification, and optimisation of hERG selectivity, of a mixed NET/SERT re-uptake inhibitor for the treatment of pain” (Bioorg Med Chem Lett, 2011):

Columns and labels:
[1] = Oral bioavailability in Wistar rat at 10 mg/kg; type: ADME, organism-based; conditions: in vivo
[2] = Tmax in Wistar rat at 10 mg/kg, po; type: ADME, organism-based; design: dose 10 mg/kg, route oral; conditions: in vivo
[3] = Volume of distribution at steady state in Wistar rat at 1 mg/kg, iv; type: ADME, organism-based; design: dose 1 mg/kg, route intravenous; conditions: in vivo, read-out: Vdss
[4] = Half life in Wistar rat at 10 mg/kg, po; type: ADME, organism-based; design: dose 10 mg/kg, route oral; conditions: in vivo
Rattus norvegicus = test: AUC in Wistar rat at 1 mg/kg, iv; type: ADME, organism-based, Plasma; design: dose 1 mg/kg, route intravenous; conditions: in vivo

## N#Cc1cc(O[C@@H]2C[C@H]3CC[C@@H](C2)N3)cc(-c2ncccc2C#N)c1
[1]
  bioavailability: 34%
[2]
  Tmax: 1.7 h
[3]
  Vd: 6.9 L/kg
[4]
  half-life: 3.2 h
Rattus norvegicus
  AUC: 563 ng·h/mL
